{
  "source": "ChEMBL document CHEMBL1201862",
  "about": "“PubChem BioAssay data set” (2004)",
  "key": {"ORF 73": {"target": "ORF 73 (Human herpesvirus 8, UniProt O40947)", "sequence (O40947 whole entry)": "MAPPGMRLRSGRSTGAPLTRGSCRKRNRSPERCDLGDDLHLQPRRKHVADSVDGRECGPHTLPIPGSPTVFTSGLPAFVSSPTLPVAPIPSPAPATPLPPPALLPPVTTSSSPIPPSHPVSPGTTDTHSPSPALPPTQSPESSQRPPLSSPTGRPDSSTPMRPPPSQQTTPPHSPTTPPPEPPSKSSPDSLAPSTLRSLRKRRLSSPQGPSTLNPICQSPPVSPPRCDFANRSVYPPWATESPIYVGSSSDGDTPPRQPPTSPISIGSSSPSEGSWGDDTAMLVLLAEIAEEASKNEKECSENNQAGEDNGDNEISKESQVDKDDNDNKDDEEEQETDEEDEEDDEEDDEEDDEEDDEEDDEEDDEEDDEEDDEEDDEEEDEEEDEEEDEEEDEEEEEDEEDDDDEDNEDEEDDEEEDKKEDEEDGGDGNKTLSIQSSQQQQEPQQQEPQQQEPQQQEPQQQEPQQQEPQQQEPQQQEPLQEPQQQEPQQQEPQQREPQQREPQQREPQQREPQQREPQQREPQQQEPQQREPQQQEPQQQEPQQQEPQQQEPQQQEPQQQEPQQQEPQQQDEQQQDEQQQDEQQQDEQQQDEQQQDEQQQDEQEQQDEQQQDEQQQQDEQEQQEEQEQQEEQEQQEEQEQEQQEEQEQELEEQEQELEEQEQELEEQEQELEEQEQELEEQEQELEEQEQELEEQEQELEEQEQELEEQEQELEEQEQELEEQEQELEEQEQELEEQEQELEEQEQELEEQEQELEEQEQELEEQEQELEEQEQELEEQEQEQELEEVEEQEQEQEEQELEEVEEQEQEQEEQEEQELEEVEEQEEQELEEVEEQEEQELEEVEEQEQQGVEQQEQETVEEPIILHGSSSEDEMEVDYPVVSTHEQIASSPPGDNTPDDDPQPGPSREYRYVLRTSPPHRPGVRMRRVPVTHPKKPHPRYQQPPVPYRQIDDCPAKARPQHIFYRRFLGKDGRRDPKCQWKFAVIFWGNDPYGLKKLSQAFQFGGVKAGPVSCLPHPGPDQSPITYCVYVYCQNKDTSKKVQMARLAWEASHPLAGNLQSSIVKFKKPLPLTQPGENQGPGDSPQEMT", "test": "inhibitors of C-LANA binding to LBS DNA, dose response, biochemical, fluorescence polarization, cherry-picked samples (AID 504725);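 further: fluorescence polarization of a labeled DNA duplex reporting LANA DNA binding; potency is for inhibitors that block LANA binding to the DNA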", "design": "species or system Human gammaherpesvirus 8"}, "[1]": {"target": "T1, Small ubiquitin-related modifier 1 (Homo sapiens, UniProt P63165)", "T1 sequence (P63165 whole entry)": "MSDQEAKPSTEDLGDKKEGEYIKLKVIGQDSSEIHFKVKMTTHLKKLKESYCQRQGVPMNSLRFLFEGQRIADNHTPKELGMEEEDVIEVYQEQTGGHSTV", "test": "inhibitors of SUMO1 peptide binding, dose response, biochemical, fluorescence polarization, uHTS hits (AID 624382)", "type": "functional", "details": "read-out: IC50_Mean"}, "[2]": {"target": "Small ubiquitin-related modifier 2 (Homo sapiens, UniProt P61956)", "sequence (P61956 whole entry)": "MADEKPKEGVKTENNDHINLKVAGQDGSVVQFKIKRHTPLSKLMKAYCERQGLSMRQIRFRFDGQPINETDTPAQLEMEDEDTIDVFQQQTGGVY", "test": "inhibitors of SUMO2 protein-protein interaction, dose response, selectivity assay for SUMO1 interaction inhibitor project, biochemical, FRET, human SUMO2, uHTS hits (AID 624384)", "type": "functional", "details": "read-out: IC50_Mean"}, "[3]": {"target": "T1, Small ubiquitin-related modifier 1", "test": "inhibitors of SUMO1 partner interactions, dose response, biochemical, FRET (AID 624383)", "type": "functional", "details": "read-out: IC50_Mean"}, "cells [4]": {"test": "cells", "type": "functional, cell-based"}, "[5]": {"target": "Lysine-specific demethylase 4C (Homo sapiens, UniProt Q9H3R0)", "sequence (Q9H3R0 whole entry)": "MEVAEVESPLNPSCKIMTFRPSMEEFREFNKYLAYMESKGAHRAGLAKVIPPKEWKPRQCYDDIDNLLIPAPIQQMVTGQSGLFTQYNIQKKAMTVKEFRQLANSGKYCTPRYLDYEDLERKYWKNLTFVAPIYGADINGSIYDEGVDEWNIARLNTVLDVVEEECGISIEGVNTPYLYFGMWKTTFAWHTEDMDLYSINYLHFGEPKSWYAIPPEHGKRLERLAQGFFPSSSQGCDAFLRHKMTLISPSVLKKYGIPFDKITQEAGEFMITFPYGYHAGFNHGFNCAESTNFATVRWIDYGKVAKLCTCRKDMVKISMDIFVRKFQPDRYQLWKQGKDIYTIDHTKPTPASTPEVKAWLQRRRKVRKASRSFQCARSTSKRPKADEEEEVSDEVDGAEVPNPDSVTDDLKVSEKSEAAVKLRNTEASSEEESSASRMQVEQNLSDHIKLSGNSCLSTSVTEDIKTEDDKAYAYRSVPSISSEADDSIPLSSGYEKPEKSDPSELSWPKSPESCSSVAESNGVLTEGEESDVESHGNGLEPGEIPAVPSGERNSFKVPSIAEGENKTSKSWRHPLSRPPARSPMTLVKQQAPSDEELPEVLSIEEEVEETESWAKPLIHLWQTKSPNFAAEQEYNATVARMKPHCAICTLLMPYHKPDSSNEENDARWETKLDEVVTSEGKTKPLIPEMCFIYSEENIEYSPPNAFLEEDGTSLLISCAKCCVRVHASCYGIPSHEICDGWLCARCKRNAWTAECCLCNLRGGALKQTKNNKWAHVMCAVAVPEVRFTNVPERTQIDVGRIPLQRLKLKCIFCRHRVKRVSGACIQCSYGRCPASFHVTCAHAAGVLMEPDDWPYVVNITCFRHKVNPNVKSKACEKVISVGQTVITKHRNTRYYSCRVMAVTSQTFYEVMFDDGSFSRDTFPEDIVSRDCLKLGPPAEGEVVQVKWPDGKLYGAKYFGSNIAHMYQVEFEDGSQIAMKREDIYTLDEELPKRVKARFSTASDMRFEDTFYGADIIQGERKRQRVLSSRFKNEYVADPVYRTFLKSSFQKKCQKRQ", "test": "GASC-1 (JMJD2C) histone demethylase inhibitors, dose response, biochemical, DELFIA europium, cherry-picked samples (AID 488835)", "type": "functional"}, "[6]": {"target": "Photoreceptor-specific nuclear receptor (Homo sapiens, UniProt Q9Y5X4)", "sequence (Q9Y5X4 whole entry)": "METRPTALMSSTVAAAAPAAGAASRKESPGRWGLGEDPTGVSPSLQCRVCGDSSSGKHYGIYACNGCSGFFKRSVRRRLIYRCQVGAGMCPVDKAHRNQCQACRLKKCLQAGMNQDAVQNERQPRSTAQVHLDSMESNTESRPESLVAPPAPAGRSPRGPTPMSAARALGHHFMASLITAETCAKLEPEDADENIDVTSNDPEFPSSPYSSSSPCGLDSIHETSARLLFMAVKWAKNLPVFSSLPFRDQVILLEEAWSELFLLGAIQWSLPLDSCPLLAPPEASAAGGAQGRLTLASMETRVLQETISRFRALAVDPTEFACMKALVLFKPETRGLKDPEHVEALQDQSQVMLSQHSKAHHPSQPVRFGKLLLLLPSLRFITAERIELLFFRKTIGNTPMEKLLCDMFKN", "type": "functional"}, "[7]": {"test": "HepG2 cell cytotoxicity, dose response, cytotoxicity control, plate reader, cherry-pick, antagonist series (AID 743416)", "type": "functional, cell-based"}, "[8]": {"test": "control 3'UTR Renilla luciferase suppression, dose response, counter-screen for Shn3 inhibitor project, cell-based, Clone20-Shn3RL, cherry-picked (AID 624133)", "type": "functional"}, "[9]": {"test": "MC4R antagonists, dose response, counter-screen for LGR2 antagonist project, cell-based, plate reader, cherry pick (AID 743444);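 further: transfected HEK 293 cells stimulated with alpha-MSH peptide; potency of inhibitors of the alpha-MSH evoked signal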", "type": "functional"}, "[10]": {"target": "T2, 1-phosphatidylinositol 4,5-bisphosphate phosphodiesterase beta-3 (Homo sapiens, UniProt Q01970)", "T2 sequence (Q01970 whole entry)": "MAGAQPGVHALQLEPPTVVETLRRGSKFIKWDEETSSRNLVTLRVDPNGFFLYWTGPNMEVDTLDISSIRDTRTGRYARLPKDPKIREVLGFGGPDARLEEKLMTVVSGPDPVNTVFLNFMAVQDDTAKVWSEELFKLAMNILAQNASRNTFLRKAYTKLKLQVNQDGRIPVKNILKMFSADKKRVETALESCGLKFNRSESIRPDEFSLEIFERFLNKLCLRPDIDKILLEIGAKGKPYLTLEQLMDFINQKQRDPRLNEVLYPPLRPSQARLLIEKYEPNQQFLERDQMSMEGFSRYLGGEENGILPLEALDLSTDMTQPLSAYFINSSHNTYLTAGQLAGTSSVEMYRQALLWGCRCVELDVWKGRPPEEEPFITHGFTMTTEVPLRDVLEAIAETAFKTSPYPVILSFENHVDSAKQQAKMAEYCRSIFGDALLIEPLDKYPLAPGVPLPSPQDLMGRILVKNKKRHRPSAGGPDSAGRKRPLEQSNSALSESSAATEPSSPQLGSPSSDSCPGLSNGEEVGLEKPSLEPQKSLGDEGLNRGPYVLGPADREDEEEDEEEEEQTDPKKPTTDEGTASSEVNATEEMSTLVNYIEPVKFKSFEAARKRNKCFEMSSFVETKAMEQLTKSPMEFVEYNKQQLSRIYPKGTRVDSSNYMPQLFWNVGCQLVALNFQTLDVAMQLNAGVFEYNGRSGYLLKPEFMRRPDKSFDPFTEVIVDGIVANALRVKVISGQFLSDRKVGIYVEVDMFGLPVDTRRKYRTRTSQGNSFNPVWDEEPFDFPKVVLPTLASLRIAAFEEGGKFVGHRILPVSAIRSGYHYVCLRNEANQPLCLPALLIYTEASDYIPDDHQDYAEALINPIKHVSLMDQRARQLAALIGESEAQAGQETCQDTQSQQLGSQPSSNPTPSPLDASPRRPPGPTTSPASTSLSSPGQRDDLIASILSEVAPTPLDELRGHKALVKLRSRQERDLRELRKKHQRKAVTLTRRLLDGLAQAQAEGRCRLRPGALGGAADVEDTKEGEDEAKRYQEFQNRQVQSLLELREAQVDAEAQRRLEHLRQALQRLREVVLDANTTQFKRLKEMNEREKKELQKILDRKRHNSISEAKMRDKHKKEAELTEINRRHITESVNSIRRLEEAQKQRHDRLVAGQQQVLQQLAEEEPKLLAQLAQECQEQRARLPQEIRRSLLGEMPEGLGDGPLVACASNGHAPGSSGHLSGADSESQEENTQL", "test": "Fluorescence-based biochemical high throughput dose response assay to identify inhibitors of phospholipase C isozymes (PLC-B3)."}, "[11]": {"test": "HEK293 cell cytotoxicity, dose response, cytotoxicity control, plate reader, cherry-picked samples (AID 743446)", "type": "functional, cell-based"}, "Caspase-8": {"target": "Caspase-8 (Homo sapiens, UniProt Q14790)", "sequence (Q14790 217-374 limits assumed)": "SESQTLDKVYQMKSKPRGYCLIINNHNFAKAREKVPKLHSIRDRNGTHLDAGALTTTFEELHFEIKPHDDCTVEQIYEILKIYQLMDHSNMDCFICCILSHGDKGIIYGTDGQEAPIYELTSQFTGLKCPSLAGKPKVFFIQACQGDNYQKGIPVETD", "sequence (Q14790 385-479 limits assumed)": "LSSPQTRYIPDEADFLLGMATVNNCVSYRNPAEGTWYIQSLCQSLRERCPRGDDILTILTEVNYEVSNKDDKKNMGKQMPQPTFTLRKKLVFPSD", "test": "caspase-8 inhibition counter-screen, dose response, selectivity assay for caspase-6 inhibitor project, biochemical, Z-IETD-R110 fluorescence, cherry-picked samples (AID 743294)"}, "[12]": {"test": "microbe, parasite or virus in culture", "type": "functional", "details": "Mycobacterium tuberculosis"}, "[13]": {"test": "A549 cell cytotoxicity, dose response, cytotoxicity control, plate reader, cherry-pick, antagonist series (AID 743412)", "type": "functional, cell-based"}, "[14]": {"test": "CEM21 lymphoblast cell cytotoxicity, dose response, cytotoxicity control for viral fusion inhibitor project, CellTiter-Glo luminescence, cherry-picked (AID 652042);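 further: potency for signal decrease meaning cytotoxicity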", "type": "functional, cell-based"}, "[15]": {"test": "inhibitors of clade B AD8 Env fusion, dose response, cell-based, cherry-pick (AID 652062);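 further: luciferase signal from cell-cell fusion driven by HIV-1 clade B AD8 Env; potency is for inhibitors of fusion seen as a drop in luminescence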", "type": "functional"}, "[16]": {"system": "Streptococcus sp. 'group A'", "test": "growth inhibition of control SK(-) GAS strain, dose response, counter-screen for streptokinase expression inhibitor project, luminescence, kanamycin, BacTiterGlo, confirmation (AID 1900)", "type": "functional, organism-based"}, "Streptokinase A": {"target": "T3, Streptokinase A (Streptococcus pyogenes serotype M1, UniProt P10520)", "T3 sequence (P10520 whole entry)": "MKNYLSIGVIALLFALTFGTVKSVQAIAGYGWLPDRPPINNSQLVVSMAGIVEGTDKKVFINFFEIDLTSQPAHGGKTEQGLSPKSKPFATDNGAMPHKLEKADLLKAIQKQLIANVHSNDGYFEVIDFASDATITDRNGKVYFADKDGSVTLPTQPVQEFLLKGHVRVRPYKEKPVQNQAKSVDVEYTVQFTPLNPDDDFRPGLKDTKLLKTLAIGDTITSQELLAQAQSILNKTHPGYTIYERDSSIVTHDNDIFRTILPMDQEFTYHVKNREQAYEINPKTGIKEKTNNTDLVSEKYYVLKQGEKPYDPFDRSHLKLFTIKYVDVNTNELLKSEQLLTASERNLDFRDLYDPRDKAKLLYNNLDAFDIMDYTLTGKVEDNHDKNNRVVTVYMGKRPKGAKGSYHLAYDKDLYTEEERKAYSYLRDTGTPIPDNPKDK", "test": "S. pyogenes streptokinase expression inhibitors, potency, dose response, plasminogen activation absorbance, OD405 (AID 1914);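 further: secreted streptokinase activity via plasminogen activation per viability signal from cell pellet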", "type": "functional, Streptococcus pyogenes M1 GAS"}, "cells [17]": {"test": "cells", "type": "functional, cell-based", "details": "HEK-CNG"}, "BJ": {"system": "BJ", "test": "cells", "type": "functional, cell-based", "details": "Homo sapiens"}},
  "note": "Active and inactive are the calls of the source.",
  "data": [
    {"smiles": "COc1ccc(NS(=O)(=O)c2ccc3c(c2)[C@H]2C=CC[C@H]2[C@@H](c2ccc(C(=O)O)cc2)N3)cc1", "values": [
      {"measurement": "AC50", "setting": "ORF 73", "result": "71.9 µM (active)"},
      {"measurement": "IC50", "setting": "[1]", "result": "4.98 µM (active)"},
      {"measurement": "IC50", "setting": "[2]", "result": "5.81 µM (active)"},
      {"measurement": "IC50", "setting": "[3]", "result": "24.5 µM (inactive)"}
    ]},
    {"smiles": "CCC(=O)NC(c1ccc(OC)cc1)c1cc(Cl)c2cccnc2c1O", "note": "(stereo unspecified)", "values": [
      {"measurement": "EC50", "setting": "cells [4]", "result": "19 µM (active)"}
    ]},
    {"smiles": "Cn1nc(-c2ccccn2)nc2c(=O)n(C)c(=O)nc1-2", "values": [
      {"measurement": "AC50", "setting": "[5]", "result": "0.873 µM (active)"},
      {"measurement": "IC50", "setting": "[6]", "result": "> 39.8 µM (not active)"},
      {"measurement": "AC50", "setting": "[7]", "result": "2.42 µM (active)"},
      {"measurement": "AC50", "setting": "[8]", "result": "2.96 µM (active)"},
      {"measurement": "AC50", "setting": "[9]", "result": "2.73 µM (active)"},
      {"measurement": "IC50", "setting": "[10]", "result": "> 122 µM (inactive)"},
      {"measurement": "AC50", "setting": "[11]", "result": "21.2 µM (active)"},
      {"measurement": "AC50", "setting": "Caspase-8", "result": "0.436 µM (active)"},
      {"measurement": "CC50", "setting": "[12]", "result": "> 40 µM (active)"},
      {"measurement": "AC50", "setting": "[13]", "result": "3.15 µM (active)"}
    ]},
    {"smiles": "CCCCCCCCCCn1c2c(c(=N)c3c1CCC3)CCC2", "values": [
      {"measurement": "AC50", "setting": "[14]", "result": "3.4 µM (active)"},
      {"measurement": "AC50", "setting": "[15]", "result": "0.726 µM (active)"},
      {"measurement": "EC50", "setting": "[16]", "result": "5.58 µM (active)"},
      {"measurement": "EC50", "setting": "Streptokinase A", "result": "4.86 µM (active)"},
      {"measurement": "EC50", "setting": "cells [17]", "result": "15.8 µM (inactive)"},
      {"measurement": "EC50", "setting": "BJ", "result": "2.46 µM (inconclusive)"}
    ]}
  ]
}
